Measured values from patent US20040191842A1, “Chemopreventive and therapeutic aspects of polyphenolic compositions and assays” (Medical College of Georgia Research Institute, Inc., priority 2002, published 2004).

Key:
[1] = test system: aged normal human primary epidermal keratinocytes; assay: MTT assay (SDH activity), aged keratinocytes; assay type: cell-based
Procedure: Culturing normal human epithelial cells. The pooled normal human primary epidermal keratinocytes were purchased from Cambrex (Baltimore, Md.) and sub-cultured in the specific growth media provided by the manufacturer (KGM-2). […] Exponentially growing keratinocytes were treated and harvested in their early passages (2-3 passages).

caspase 3 = assay: Caspase 3 activity assay, mammary epithelial cells; assay type: cell-based, human; conditions: 100 μM EGCG, 24 hours
Procedure: Caspase 3 activity assay. The Caspase 3 Apoptosis Detection Kit was purchased from Santa Cruz Biotech. Inc. In a 24 well tissue culture plate, 10^5 cells/well of control or treated cells in triplicates were plated. […] To each well, 100 μl of 2×reaction buffer was added with 10 mM DTT. Finally, 5 μl of DEVD-AFC substrate was added to each well containing cell lysates. The reaction mixtures were incubated for 1 hour at 37° C. The caspase 3 activity in each well was measured using a fluorescence plate reader set for 405 nanometer (nm) excitation and 505 nm emission.

p57 (KIP2) = assay: Western blot of p57 in OSC2 oral carcinoma cells; assay type: cell-based, human
Procedure: Cell treatments. For 24 hours treatments, exponentially growing cells with 40% confluency (to minimize differentiation and spontaneous apoptosis) were either maintained in 50 μM EGCG (2.29 mg/100 ml) or 0.2 mg/ml of GTPPs in tissue culture flasks (25 cm^2). Control flasks contained cells without any treatment. To test whether BaP or NNK interfere with the induction of p57, the human keratinocytes were treated with 0.12 μM BaP, or 10 μM NNK, either alone or in combination with 50 μM EGCG. To examine the time course of p57 induction, cells were treated with 50 μM EGCG and harvested for Western analysis at 30 minutes, 2 hours, 6 hours, and 24 hours. The human keratinocytes were treated when the cell density reached 85-90% confluency (to mimic the epithelium).
In a parallel series of experiments, treatment with EGCG was performed with 30 micrograms per milliliter (μg/ml) cycloheximide added to the keratinocyte media 30 minutes prior to the addition of EGCG. The dose-response experiments were performed using EGCG concentrations at 30, 50 100, and 200 μM in the culture media for 24 hours.
Western blot analysis. […] The concentration of protein in each sample was determined using the BioRad DC Protein Assay and spectrophotometry. […]

MCF7 cells = assay: Morphological analysis, MCF7 cells; assay type: cell-based, human; conditions: EGCG, 48 hours, vs 24 hour control
Source text: Cell lines and cell culture. The normal human keratinocytes (NHEK CC-2507) were purchased from Cambrex (East Rutherford, N.J.) and maintained in KGM-2 medium (Cambrex). The OSC2 cell line was previously described (Osaki et al., Eur J Cancer B Oral Oncol 1994; 30 B:296-301). The breast carcinoma MCF7 cell line was purchased from American Type Culture Collection. The MCF7(C) caspase+cell line “7-3-28 ” was established and tested as previously described (Janicke et al., J Biol Chem 1998; 273:9357-60, Blanc et al., Cancer Res 2000; 60:4386-90). These tumor cells were maintained in 45% Dulbecco's Modified Eagle's Medium (DMEM), 45% Ham's F12 medium and 10% fetal calf serum, 100 I.U/ml penicillin, 100 μg/ml streptomycin and 5 μg/ml hydrocortisone. All cell cultures were maintained in a 37° C. incubator with 5% CO2. Light microscopic photographs were taken with a SPOT RT digital camera system (Diagnostic Instruments) linked to a Nikon Phase Contrast-2 microscope at an original magnification of 200×.

[2] = test system: salivary acenar cells (AC) and duct cells (DC), HSG and OSC tumor cells; assay: Protection of salivary gland cells from CDDP and UVC (SDH, BrdU); conditions: pretreatment of EGCG
Source text: Human immortalized salivary acenar cells (AC) and duct cells (DC), along with human salivary gland tumor cells (HSG, a radiation-resistant cell line) and oral squamous carcinoma cells (OSC) were either treated by CDDP or irradiated by UVC with or without the presence of EGCG, followed by determination of the mitochondrial succinate dehydrogenase (SDH) activity, a measurement of mitochondrial damage and BrdU incorporation determination.

transglutaminase = assay: Transglutaminase activity assay, exponentially growing keratinocytes; assay type: cell-based, human; conditions: 50 μM or 100 μM EGCG
Procedure: Transglutaminase activity assay. Normal human epidermal keratinocytes in early passages (2-3) were allowed to grow in 6-well tissue culture plates prior to EGCG exposure. The cells were scraped in homogenization buffer (0.1 M Tris/acetate, pH 8.5, containing 0.2 mM EDTA, 20 μM AEBSF, 2 μg/mL aprotinin, 2 μM leupeptin and 1 μM pepstatin A), collected by centrifugation and subjected to one freeze-thaw cycle prior to lysis by sonication. Unlysed cells were pelleted by centrifugation and aliquots of the supernatant collected for the determination of transglutaminase activity and protein concentration. Protein quantities were determined using the BioRad Protein Assay with bovine serum albumin as standard. Transglutaminase activity was measured as the incorporation of [^3 H] putrescine into dimethylated casein, as described previously (Jung et al., J Invest Dermatol, 1998; 110:318-23).

Structure (SMILES): O=C(O[C@@H]1Cc2c(O)cc(O)cc2O[C@@H]1c1cc(O)c(O)c(O)c1)c1cc(O)c(O)c(O)c1 [EGCG, (−)-epigallocatechin-3-gallate]
- SDH activity and BrdU incorporation ([1]; EGCG concentrations higher than 100 μM): consistently induced both SDH activity and BrdU incorporation
- activation of succinate dehydrogenase (SDH), MTT assay ([1]; keratinocytes 25 days in culture, 24 h treatment): up to 37 fold
- increase in caspase 3 activity compared to control (caspase 3): 3 fold
- p57 levels (p57 (KIP2); 50 μM EGCG or 0.2 mg/ml GTPPs, 24 h): remained unchanged
- p57 expression, time course and dose response (p57 (KIP2); EGCG at any time point or concentration): failed to elevate p57 expression
- cell density (MCF7 cells): increased cell density was observed
- protection from CDDP and UVC cytotoxicity [2]: significantly protected the normal salivary gland cells from CDDP and UVC, but not the tumor cells
- transglutaminase activity vs control (transglutaminase): significantly higher activity
